12 molecules from PubChem BioAssay (NCI) can be followed below.

Among the test systems are COLO 205 colon; SK-OV-3 ovarian; CCRF-CEM leukemia; LOX IMVI melanoma; NCI-H226 lung; CAKI-1 renal; NCI-H522 lung; SN12C renal; SK-MEL-28 melanoma; MDA-MB-231 breast.
What all share (assay): DTP human tumour cell line panel, 48 h

Where “and” joins values, the source holds several entries; their conditions need not be identical. Equal entries are not always repeated.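 Growth conditions: 96-well plates. Treatment: test compound, 48 hours, 5 concentrations. Analysis: linear interpolation between bracketing concentrations; unreached endpoints set to highest concentration. GI50 = concentration required for 50% inhibition of growth. The concentration for full growth arrest is given as TGI.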 Bounds are passed on as bounds.

Take `CN(C)CCNc1nc2c(c(=O)n(C)c(=O)n2C)n1C`: the TGI in the assay on COLO 205 colon, in the assay on SK-OV-3 ovarian, in the assay with CCRF-CEM leukemia, with LOX IMVI melanoma, in the assay with NCI-H226 lung and in the assay on CAKI-1 renal was greater than 100 µM in each case. The TGI in the assay with NCI-H522 lung, with SN12C renal, with SK-MEL-28 melanoma and in the assay with MDA-MB-231 breast was greater than 100 µM in each case.
With `CCOC(=O)C1=CN(Cc2ccccc2)C2ON=C(c3ccc(Cl)cc3)C2C1` (configuration not stated), the TGI is greater than 64.1 µM in the assay with COLO 205 colon; greater than 85.9 µM in the assay on SK-OV-3 ovarian; greater than 100 µM in the assay on CCRF-CEM leukemia; greater than 74.2 µM with LOX IMVI melanoma; greater than 74.3 µM with NCI-H226 lung; greater than 85.1 µM with CAKI-1 renal. Further, the TGI was greater than 49.6 µM in the assay on NCI-H522 lung, greater than 65.4 µM with SN12C renal, greater than 71.8 µM with SK-MEL-28 melanoma and greater than 61.6 µM in the assay with MDA-MB-231 breast.
In the case of `COC(=O)/C=C/c1cc(OC)c2c(c1)C(C(=O)OC)C(c1ccc(O)c(OC)c1)O2` (configuration not stated), the GI50 in the assay on COLO 205 colon is 17 µM and 13.1 µM and 7.32 µM; in the assay on CCRF-CEM leukemia, 3.4 µM and 3.35 µM and 0.699 µM; with LOX IMVI melanoma, 7.16 µM and 4.36 µM and 1.04 µM; in the assay on NCI-H226 lung it was 32.9 µM and 10.3 µM and 4.53 µM; with CAKI-1 renal it was 2.63 µM and 2.04 µM and 12.2 µM; with NCI-H522 lung, 3.96 µM and 3.17 µM and 1.92 µM. Moreover, the GI50 was 13.9 µM and 9.44 µM and 4.63 µM with SN12C renal; > 56.3 µM and 18.9 µM and 9.69 µM with SK-MEL-28 melanoma. The TGI is 35.4 µM and 26.4 µM and 25.8 µM in the assay with COLO 205 colon; greater than 100 µM with SK-OV-3 ovarian; > 100 µM and 22.3 µM and 25.3 µM in the assay on LOX IMVI melanoma; > 100 µM and > 88.2 µM and 12.7 µM in the assay on NCI-H226 lung; 14.3 µM and 11.9 µM and > 74 µM in the assay on CAKI-1 renal; > 27.5 µM and 25.5 µM and 8.16 µM with NCI-H522 lung. For the same molecule, the TGI with SN12C renal is greater than 100 µM; in the assay with SK-MEL-28 melanoma, > 100 µM and > 70.4 µM and 86.7 µM; with MDA-MB-231 breast it was > 25.8 µM and 18.8 µM and 42.1 µM.
`ClC1(Cl)C2CCOC21n1cnc2ccccc21` (configuration not stated): the TGI in the assay with COLO 205 colon, in the assay on SK-OV-3 ovarian, in the assay on CCRF-CEM leukemia, in the assay on LOX IMVI melanoma, in the assay with NCI-H226 lung and in the assay on CAKI-1 renal was greater than 100 µM in each case. Besides, the TGI in the assay on NCI-H522 lung, in the assay with SN12C renal, in the assay on SK-MEL-28 melanoma and in the assay with MDA-MB-231 breast was greater than 100 µM in each case.
On to `FC(F)(F)c1ccc(N=NN2CCCC2)cc1`, for which the TGI with COLO 205 colon, with SK-OV-3 ovarian, with CCRF-CEM leukemia, in the assay with LOX IMVI melanoma, in the assay with NCI-H226 lung and with CAKI-1 renal was greater than 100 µM each time. Also, the TGI in the assay with NCI-H522 lung, with SN12C renal, in the assay with SK-MEL-28 melanoma and with MDA-MB-231 breast was greater than 100 µM in each case.
As for `CCOC1=NC(C(F)(F)F)(C(F)(F)F)N=C(/N=C(/N)N(C)C(C(C)C)P(=O)(OC(C)C)OC(C)C)O1` (configuration not stated), the TGI in the assay on COLO 205 colon is greater than 100 µM; in the assay with SK-OV-3 ovarian, greater than 100 µM; in the assay on CCRF-CEM leukemia it was 83.5 µM; in the assay with LOX IMVI melanoma, greater than 100 µM; with NCI-H226 lung, greater than 100 µM; with CAKI-1 renal, greater than 100 µM. Besides, the TGI in the assay on NCI-H522 lung is 93.3 µM; in the assay on SN12C renal, greater than 100 µM; in the assay with SK-MEL-28 melanoma, greater than 100 µM; with MDA-MB-231 breast, greater than 100 µM.
In the case of `CC(=O)Nc1ccc2cc3c(nc2n1)c1cccnc1n3S(=O)(=O)c1ccccc1`, the TGI in the assay with COLO 205 colon, in the assay on SK-OV-3 ovarian, in the assay with CCRF-CEM leukemia, in the assay on LOX IMVI melanoma, in the assay with NCI-H226 lung and in the assay with CAKI-1 renal was greater than 100 µM throughout. Moreover, the TGI with NCI-H522 lung, in the assay with SN12C renal, in the assay on SK-MEL-28 melanoma and in the assay on MDA-MB-231 breast was greater than 100 µM each time.
Take `Cc1cn(C2CC(/[N+]([O-])=N\Nc3ccc([N+](=O)[O-])cc3)C(CO)O2)c(=O)[nH]c1=O` (configuration not stated): the TGI in the assay with COLO 205 colon, in the assay on SK-OV-3 ovarian, in the assay on CCRF-CEM leukemia, in the assay with LOX IMVI melanoma, in the assay on NCI-H226 lung and with CAKI-1 renal was greater than 100 µM each time. In addition, the TGI with NCI-H522 lung, with SN12C renal, with SK-MEL-28 melanoma and with MDA-MB-231 breast was greater than 100 µM throughout.
On to `c1ccc2c[n+](Cc3ccnc4ccccc34)ccc2c1`, for which the TGI with COLO 205 colon, in the assay with SK-OV-3 ovarian, in the assay with CCRF-CEM leukemia, in the assay with LOX IMVI melanoma, in the assay on NCI-H226 lung and in the assay on CAKI-1 renal was greater than 100 µM throughout. The TGI in the assay on NCI-H522 lung, in the assay with SN12C renal, in the assay on SK-MEL-28 melanoma and with MDA-MB-231 breast was greater than 100 µM throughout.
For `O=C(O)COc1cccc2ccccc(=O)c12`, the TGI in the assay with COLO 205 colon, in the assay on SK-OV-3 ovarian, in the assay with CCRF-CEM leukemia, in the assay with LOX IMVI melanoma, with NCI-H226 lung and with CAKI-1 renal was greater than 100 µM each time. Besides, the TGI in the assay with NCI-H522 lung, with SN12C renal, with SK-MEL-28 melanoma and with MDA-MB-231 breast was greater than 100 µM each time.
Regarding `CCCCCC(=O)OC[n+]1ccc(-c2c(COC(=O)NC(C)C)c(COC(=O)NC(C)C)c3n2CCC3)cc1`, the TGI with COLO 205 colon, in the assay on SK-OV-3 ovarian, with CCRF-CEM leukemia, in the assay with LOX IMVI melanoma, with NCI-H226 lung and in the assay on CAKI-1 renal was greater than 100 µM each time. For the same molecule, the TGI in the assay with NCI-H522 lung, in the assay with SN12C renal, with SK-MEL-28 melanoma and with MDA-MB-231 breast was greater than 100 µM throughout.
As for `CCOC(=O)C(C(=O)OCC)C(=S)NC1OC(COC(C)=O)C(OC(C)=O)C(OC(C)=O)C1OC(C)=O` (configuration not stated), the TGI with COLO 205 colon, in the assay on SK-OV-3 ovarian, in the assay on CCRF-CEM leukemia, in the assay with LOX IMVI melanoma, in the assay on NCI-H226 lung and with CAKI-1 renal was greater than 100 µM throughout. The TGI with NCI-H522 lung, with SN12C renal, with SK-MEL-28 melanoma and in the assay with MDA-MB-231 breast was greater than 100 µM throughout.
